Reference: article PMC9886550, “Molecular mechanism of topoisomerase poisoning by the peptide antibiotic albicidin” (Nature Catalysis, 2023)

Legend:
[1] = tested on: selected Gram-negative and Gram-positive microorganisms; assay: MIC activity groups over all tested strains; format: cell-based; set-up: key: a: most potent; b: intermediate; least active; details: MIC panel
Description: MIC values were determined according to the ninth edition of the Approved Standard M07-A9. The test was carried out for six different bacterial strains (E. coli DSM 1116 (Gram-negative), E. coli BW25113 (Gram-negative), B. subtilis DSM 10 (Gram-positive), M. luteus DSM 1790 (Gram-positive), M. phlei DSM 750 (Gram-positive), S. typhimurium TA 100 (Gram-negative). First, 20 µl of glycerol stock of each strain was inoculated in 20 ml LB (Lennox) followed by incubation overnight at 37 °C, 200 r.p.m. The test inoculum was adjusted by the 0.5 McFarland Standard. Within 15 min of preparation, the adjusted inoculum suspension was diluted in MHBII so that each well contained approximately 5 × 10^5 c.f.u. ml^−1 in a final volume of 100 µl. Then, 95 µl of the inoculum was applied per well and 5 µl of the (diluted) albicidins was added. For dilutions, the dry powders were dissolved in dimethylsulfoxide (DMSO) with a concentration of 2.56 mg ml^−1, and the obtained stock solutions were further diluted in DMSO. Next, 5 µl of each antibiotic dilution was applied to the microdilution tray to reach final concentrations of 8 to 0.016 µg ml^−1. One row of each well plate served as a growth control without antibiotic and another row of the microdilution tray served as a sterility control (only MHBII media). The antimicrobial effect of the solvent was tested by adding 5 µl DMSO to several wells. Purity check and cell titre control were performed according to International Standard M07-A9 on Mueller–Hinton II Agar. Both microdilution trays and agar plates were incubated at 37 °C for 20 h.

E. coli gyrase GyrA^I74M = biological target: T1, E. coli gyrase GyrA^I74M (Escherichia coli, UniProt P0AES4+P0AES6, I74M); assay: DNA gyrase cleavage assay (CC50, % cleaved DNA); format: biochemical; details: for % maximal cleavage: GyrAI74M, average of 3 independent assays; for EC50: GyrA^I74M, mean ± s.d. of triplicate; for % cleaved DNA Average: average of replicates
T1 construct: alternative cryo-EM approach involving full-length E. coli gyrase; 10-His (cleaved yes); Twin-Strep (cleaved yes); made in house
Description: (§1) For DNA gyrase supercoiling assays to characterize gyrase mutants, 15 µl reactions were set up containing 250 ng of relaxed DNA, E. coli gyrase supercoiling buffer (35 mM Tris–Cl pH 7.5, 24 mM KCl, 4 mM MgCl2, 2 mM DTT, 1.8 mM spermidine, 1 mM ATP, 6.0% (w/v) glycerol, and 0.1 mg ml^−1 BSA), gyrase subunits and inhibitors. Concentrations of enzyme and inhibitor are stated in the figure legends. Inhibitors were diluted in the following way to reduce the chance of precipitation: stock compound in 100% DMSO was diluted to 5 mM in 100% DMSO. This compound solution was diluted to 1 mM by stepwise addition of 1 µl of 50% DMSO with thorough mixing via pipetting after each addition. All subsequent dilutions up to 100 µM were performed in the same way using H2O. After this point, compounds were stable and could be diluted in the normal way. Reactions were incubated at 37 °C for 30 min before stopping with 15 µl chloroform:isoamyl alcohol (24:1 v/v) and 15 µl of STEB (40% (w/v) sucrose, 100 mM Tris–Cl pH 8, 10 mM EDTA, 0.5 mg ml^−1 bromophenol blue).
(§2) Cleavage assays were set up in the same way as supercoiling assays with some modifications. The concentration of enzyme was increased 4-fold relative to the supercoiling assay and reactions were incubated for 1 h before addition of 0.2% SDS and proteinase K (0.2 mg ml^−1) and further incubation at 37 °C for 30 min to trap cleavage complexes. Reactions were stopped in the same way as supercoiling assays.
Results were visualized by agarose gel electrophoresis: 1% agarose Tris-acetate-EDTA (TAE) gels were run without ethidium bromide (supercoiling) or with 10 µg ml^−1 ethidium bromide (cleavage) at 8 V cm^−1.
DNA cleavage gels were analysed using densitometry (ImageJ). Experiments were carried out in triplicate and expressed as mean ± s.d. Curves were fitted using OriginPro 2021 (Origin Lab) according to a modified Hill equation:1 y=cI+(cF−cI)[…]/(k^n+x^n) where y is the percentage of cleaved DNA, cI is the initial cleavage, cF is the final cleavage, k is the CC50 (the concentration of inhibitor that results in cleavage of 50% of DNA), n is a slope factor and x is the inhibitor concentration.

E. coli gyrase GyrA^D72N = biological target: T2, E. coli gyrase GyrA^D72N (Escherichia coli, UniProt P0AES4+P0AES6); format: biochemical; details: in words
T2 construct: alternative cryo-EM approach involving full-length E. coli gyrase; 10-His (cleaved yes); Twin-Strep (cleaved yes); made in house
Description: as §1
as §2, with “Reactions were stopped in the same way as supercoiling assays.” left out

Structure (SMILES) | activity group (superscript letter) [1] | % maximal cleavage (E. coli gyrase GyrA^I74M) [%] | reduction in the maximal amount of cleavage (E. coli gyrase GyrA^I74M; GyrA^I74M vs WT gyrase) | EC50 (E. coli gyrase GyrA^I74M) [µM] | % cleaved DNA Average (E. coli gyrase GyrA^I74M; albicidin 0.0025 µM) [%] | % cleaved DNA Average (E. coli gyrase GyrA^I74M; albicidin 0.005 µM) [%] | % cleaved DNA Average (E. coli gyrase GyrA^I74M; albicidin 0.01 µM) [%] | % cleaved DNA Average (E. coli gyrase GyrA^I74M; albicidin 0.025 µM) [%] | % cleaved DNA Average (E. coli gyrase GyrA^I74M; albicidin 0.05 µM) [%] | % cleaved DNA Average (E. coli gyrase GyrA^I74M; albicidin 0.1 µM) [%] | % cleaved DNA Average (E. coli gyrase GyrA^I74M; albicidin 0.25 µM) [%] | % cleaved DNA Average (E. coli gyrase GyrA^I74M; albicidin 0.5 µM) [%] | % cleaved DNA Average (E. coli gyrase GyrA^I74M; albicidin 1 µM) [%] | resistance of the variant judged by the CC50 (E. coli gyrase GyrA^D72N)
COc1c(NC(=O)c2ccc(NC(=O)c3ccc(NC(=O)[C@H](CC#N)NC(=O)c4ccc(NC(=O)/C(C)=C/c5ccc(O)cc5)cc4)cc3)c(OC)c2O)ccc(C(=O)O)c1O [Albicidin] | Albicidin^a | 40±10 | ~ 2 fold | 0.042 ± 0.0077 | 2.868 | 1.835 | 6.013 | 10.9112 | 19.5143 | 32.1987 | 36.304 | 39.8221 | 36.4081 | did not show increased resistance
CC(C)Oc1c(NC(=O)c2ccc(NC(=O)[C@H](Cc3c[nH]nn3)NC(=O)c3ccc(NC(=O)c4ccc(C#N)cc4)cn3)cn2)ccc(C(=O)Nc2ccc(C(=O)O)cc2)c1O [Albi-1] | Albi-1^a | 79±5 | – | 0.03 ± 0.0027 | – | – | – | – | – | – | – | – | – | did not show increased resistance
COc1c(NC(=O)c2ccc(NC(=O)c3ccc(NC(=O)[C@H](Cc4c[nH]nn4)NC(=O)c4ccc(NC(=O)c5ccc6cc(O)ccc6c5)cc4)cn3)c(OCCN)c2O)ccc(C(=O)O)c1O [Albi-2] | Albi-2^b | – | – | – | – | – | – | – | – | – | – | – | – | –
